Results as given in patent US20260053171A1, “METHANOGEN INHIBITORS” (AGRIZERONZ LIMITED PARTNERSHIP, priority 2022, published 2026).

Test system: methane production in rumen fluid
Experiment: Rumen in vitro (RIV) assay, methane production from rumen fluid incubations
Assay type: cell-based, cattle
Conditions: for inhibition at 50 µM / inhibition at 10 µM / inhibition at 2 µM: Bos taurus, read-out: RIV % methane reduction +/− SD
Method in brief: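 Rumen fluid from two fistulated cattle diluted 12 ml in 48 ml buffer with ryegrass substrate, incubated in sealed bottles at 39° C for 24-48 h in duplicate. Inhibitors added in DMF (stocks 1000-fold above highest assay level); total gas, methane and H2 measured automatically; 30 μM BES positive control, no-inhibitor negative control.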

Row | Structure (SMILES) | inhibition at 50 µM (50 μM) | inhibition at 10 µM (10 μM) | inhibition at 2 µM (2 μM) | also measured
1 | NC(=O)CCC(=O)N1N=C(c2ccc(Cl)cc2)CC1c1ccc2nccnc2c1 (stereo not shown) [Compound 113, 4-(3-(4-Chlorophenyl)-5-(quinoxalin-6-yl)-4,5-dihydro-1H-pyrazol-1-yl)-4-oxobutanamide] | 15.6 ± 0.4% | – | – | –
2 | O=C(O)CCC(=O)N1N=C(c2ccc(Cl)cc2)CC1c1cccc2nccnc12 (stereo not shown) [Compound 33, 4-(3-(4-Chlorophenyl)-5-(quinoxalin-5-yl)-4,5-dihydro-1H-pyrazol-1-yl)-4-oxobutanoic acid] | 18.4 ± 3.7% | – | – | –
3 | O=C(O)CCC(=O)N1N=C(c2ccc(Cl)cc2)CC1c1ccc2nccnc2c1 (stereo not shown) [Compound 1, 4-(3-(4-Chlorophenyl)-5-(quinoxalin-6-yl)-4,5-dihydro-1H-pyrazol-1-yl)-4-oxobutanoic acid] | 37.6 ± 1.3% | – | – | –
4 | O=C1NC(=O)C(CC(=O)N2N=C(c3ccc(Cl)cc3)CC2c2ccc3nccnc3c2)S1 (stereo not shown) [Compound 63, 5-(2-(3-(4-Chlorophenyl)-5-(quinoxalin-6-yl)-4,5-dihydro-1H-pyrazol-1-yl)-2-oxoethyl)thiazolidine-2,4-dione] | 43.6 ± 2.9% | – | – | –
5 | O=C(O)CCC(=O)N1N=C(c2ccc(OC(F)(F)F)cc2)CC1c1ccc2nccnc2c1 (stereo not shown) [Compound 8, 4-Oxo-4-(5-(quinoxalin-6-yl)-3-(4-(trifluoromethoxy)phenyl)-4,5-dihydro-1H-pyrazol-1-yl)butanoic acid] | 75.2 ± 1.6% | 22.6 ± 2.8% | – | –
6 | O=C(O)CCC(=O)N1N=C(c2ccc(Cl)c(Cl)c2)CC1c1ccc2nccnc2c1 (stereo not shown) [Compound 11, 4-(3-(3,4-Dichlorophenyl)-5-(quinoxalin-6-yl)-4,5-dihydro-1H-pyrazol-1-yl)-4-oxobutanoic acid] | 62.8 ± 3.4% | – | – | –
7 | COc1cc(C2CC(c3ccc(-c4ccccc4)cc3)=NN2C(=O)CCC(=O)O)ccc1O (stereo not shown) [Compound 46, 4-(3-([1,1′-Biphenyl]-4-yl)-5-(4-hydroxy-3-methoxyphenyl)-4,5-dihydro-1H-pyrazol-1-yl)-4-oxobutanoic acid] | 48.6 ± 1.7% | – | – | –
8 | COc1cc(C2CC(c3ccc(Cl)cc3)=NN2C(=O)CCC(=O)O)ccc1O (stereo not shown) [Compound 45, 4-(3-(4-Chlorophenyl)-5-(4-hydroxy-3-methoxyphenyl)-4,5-dihydro-1H-pyrazol-1-yl)-4-oxobutanoic acid] | 73.1 ± 8.6% | 9.9 ± 1.8% | – | –
9 | O=C(O)CCC(=O)N1N=C(c2ccc(Cl)cc2)CC1c1ccc2c(c1)OC(F)(F)O2 (stereo not shown) [Compound 38, 4-(3-(4-Chlorophenyl)-5-(2,2-difluorobenzo[d][1,3]dioxol-5-yl)-4,5-dihydro-1H-pyrazol-1-yl)-4-oxobutanoic acid] | 93.4 ± 0.5% | 55.8 ± 1.8% | – | –
10 | O=C(O)CCC(=O)N1N=C(c2ccc(-c3ccc(N4CCCCC4)cc3)cc2)CC1c1ccc2nccnc2c1 (stereo not shown) [Compound 96, 4-Oxo-4-(3-(4′-(piperidin-1-yl)-[1,1′-biphenyl]-4-yl)-5-(quinoxalin-6-yl)-4,5-dihydro-1H-pyrazol-1-yl)butanoic acid] | 73.3 ± 12.1% | 8.2 ± 2.5% | – | –
11 | O=C(O)CCC(=O)N1N=C(c2ccc(-c3ccc(OC4CCCC4)cc3)cc2)CC1c1ccc2nccnc2c1 (stereo not shown) [Compound 85, 4-(3-(4′-(Cyclopentyloxy)-[1,1′-biphenyl]-4-yl)-5-(quinoxalin-6-yl)-4,5-dihydro-1H-pyrazol-1-yl)-4-oxobutanoic acid] | – | 71.8 ± 4.5% | 17.9 ± 7.3% | –
12 | COCc1ccc(-c2ccc(C3=NN(C(=O)CCC(=O)O)C(c4ccc5nccnc5c4)C3)cc2)cc1 (stereo not shown) [Compound 89, 4-(3-(4′-(Methoxymethyl)-[1,1′-biphenyl]-4-yl)-5-(quinoxalin-6-yl)-4,5-dihydro-1H-pyrazol-1-yl)-4-oxobutanoic acid] | 85 ± 1.7% | 21.9 ± 7% | – | –
13 | O=C(O)CCC(=O)N1N=C(c2ccc(-c3ccc(OC4CC4)cc3)cc2)CC1c1ccc2nccnc2c1 (stereo not shown) [Compound 84, 4-(3-(4′-Cyclopropoxy-[1,1′-biphenyl]-4-yl)-5-(quinoxalin-6-yl)-4,5-dihydro-1H-pyrazol-1-yl)-4-oxobutanoic acid] | – | 75.1 ± 4.2% | 9.8 ± 1% | –
14 | O=C(O)CCC(=O)N1N=C(c2cccc(-c3ccc(OC(F)(F)F)cc3)c2)CC1c1ccc2nccnc2c1 (stereo not shown) [Compound 14, 4-Oxo-4-(5-(quinoxalin-6-yl)-3-(4′-(trifluoromethoxy)-[1,1′-biphenyl]-3-yl)-4,5-dihydro-1H-pyrazol-1-yl)butanoic acid] | 95.4% | 72.4 ± 0.8% | < 5% | –
15 | O=C(O)CCC(=O)N1N=C(c2ccc(-c3ccc4c(c3)OC(F)(F)O4)cc2)CC1c1ccc2nccnc2c1 (stereo not shown) [Compound 104, 4-(3-(4-(2,2-Difluorobenzo[d][1,3]dioxol-5-yl)phenyl)-5-(quinoxalin-6-yl)-4,5-dihydro-1H-pyrazol-1-yl)-4-oxobutanoic acid] | – | 41.9 ± 8.9% | – | –
16 | CS(=O)(=O)NC(=O)c1cccc(N2N=C(c3ccc(Cl)cc3)CC2c2ccc3nccnc3c2)c1 (stereo not shown) [Compound 72, 3-(3-(4-Chlorophenyl)-5-(quinoxalin-6-yl)-4,5-dihydro-1H-pyrazol-1-yl)-N-(methylsulfonyl)benzamide] | – | 82.5 ± 2.5% | 14.3 ± 4.7% | –

Row | Structure (SMILES) | inhibition at 50 µM (50 μM) | inhibition at 10 µM (10 μM) | inhibition at 2 µM (2 μM) | also measured
17 | O=C(O)CCC(=O)N1N=C2c3ccc(-c4ccccc4)cc3CCC2C1c1ccc2nccnc2c1 (stereo not shown) [Compound 75, 4-Oxo-4-(7-phenyl-3-(quinoxalin-6-yl)-3,3a,4,5-tetrahydro-2H-benzo[g]indazol-2-yl)butanoic acid] | 92.8 ± 0.5% | 87.5 ± 0.6% | 15.8 ± 4.5% | –
18 | CS(=O)(=O)NC(=O)CCC(=O)N1N=C(c2ccc(OC(F)(F)F)cc2)CC1c1ccc2nccnc2c1 (stereo not shown) [Compound 56] | 98.6% | 72.4 ± 10.6% | < 5% | –
19 | COc1ccc(C2=NN(C(=O)CCC(=O)O)C(c3ccc4nccnc4c3)C2)cc1 (stereo not shown) [Compound 6, 4-(3-(4-Methoxyphenyl)-5-(quinoxalin-6-yl)-4,5-dihydro-1H-pyrazol-1-yl)-4-oxobutanoic acid] | 5.6 ± 2% | – | – | –
20 | O=C(O)CCC(=O)N1N=C(c2ccc(-c3ccccc3)cc2)CC1c1ccc2c(c1)OCCO2 (stereo not shown) [Compound 40, 4-(3-([1,1′-Biphenyl]-4-yl)-5-(2,3-dihydrobenzo[b][1,4]dioxin-6-yl)-4,5-dihydro-1H-pyrazol-1-yl)-4-oxobutanoic acid] | 89.5 ± 1.4% | 39.8 ± 1.3% | – | –
21 | Cc1ccc(-c2ccc(C3=NN(C(=O)CCC(=O)O)C(c4ccc5nccnc5c4)C3)cc2)cc1 (stereo not shown) [Compound 23, 4-(3-(4′-Methyl-[1,1′-biphenyl]-4-yl)-5-(quinoxalin-6-yl)-4,5-dihydro-1H-pyrazol-1-yl)-4-oxobutanoic acid] | 94.8 ± 0.4% | 69 ± 3.7% | – | –
22 | CC(C)Oc1ccc(-c2ccc(C3=NN(C(=O)CCC(=O)O)C(c4ccc5nccnc5c4)C3)cc2)cc1F (stereo not shown) [Compound 100, 4-(3-(3′-Fluoro-4′-isopropoxy-[1,1′-biphenyl]-4-yl)-5-(quinoxalin-6-yl)-4,5-dihydro-1H-pyrazol-1-yl)-4-oxobutanoic acid] | – | 89.2 ± 3% | 25 ± 7.8% | –
23 | O=C(O)CCC(=O)N1N=C2c3cccc(-c4ccccc4)c3CCC2C1c1ccc2nccnc2c1 (stereo not shown) [Compound 129, 4-Oxo-4-(6-phenyl-3-(quinoxalin-6-yl)-3,3a,4,5-tetrahydro-2H-benzo[g]indazol-2-yl)butanoic acid] | – | 42.5 ± 15.8% | – | –
24 | O=C(O)CCC(=O)N1N=C(c2ccc(C3CCCCC3)cc2)CC1c1ccc2nccnc2c1 (stereo not shown) [Compound 4, 4-(3-(4-Cyclohexylphenyl)-5-(quinoxalin-6-yl)-4,5-dihydro-1H-pyrazol-1-yl)-4-oxobutanoic acid] | 79.5 ± 4.4% | < 5% | – | –
25 | O=C(O)c1cccc(N2N=C(c3ccc(-c4ccccc4)cc3)CC2c2ccc3nccnc3c2)c1 (stereo not shown) [Compound 61, 3-(3-([1,1′-Biphenyl]-4-yl)-5-(quinoxalin-6-yl)-4,5-dihydro-1H-pyrazol-1-yl)benzoic acid] | 95.9 ± 0.6% | 88.3 ± 0.9% | 13.1% | –
26 | COc1ccc(C2CC(c3ccc(Cl)cc3)=NN2C(=O)CCC(=O)O)cc1O (stereo not shown) [Compound 44, 4-(3-(4-Chlorophenyl)-5-(3-hydroxy-4-methoxyphenyl)-4,5-dihydro-1H-pyrazol-1-yl)-4-oxobutanoic acid] | 31.3 ± 0.8% | – | – | –
27 | O=C(O)CC(=O)N1N=C(c2ccc(Cl)cc2)CC1c1ccc2nccnc2c1 (stereo not shown) [Compound 49, 3-(3-(4-Chlorophenyl)-5-(quinoxalin-6-yl)-4,5-dihydro-1H-pyrazol-1-yl)-3-oxopropanoic acid] | 8.1 ± 7.7% | – | – | –
28 | CS(=O)(=O)NC(=O)CCC(=O)N1N=C(c2ccc(OC(F)(F)F)cc2)CC1c1ccc2nccnc2c1 (stereo not shown) [Compound 116, N-(Methylsulfonyl)-4-oxo-4-(5-(quinoxalin-6-yl)-3-(4-(trifluoromethoxy)phenyl)-4,5-dihydro-1H-pyrazol-1-yl) butanamide] | – | – | – | RIV % methane reduction +/− SD (2 μM): <5%; RIV % methane reduction +/− SD (10 μM): 72.4 ± 10.6%; RIV % methane reduction +/− SD (50 μM): 93.9 ± 4.7%
29 | COc1ccc(-c2ccc(C3=NN(C(=O)CCC(=O)O)C(c4ccc5nccnc5c4)C3)cc2)cc1 (stereo not shown) [Compound 25, 4-(3-(4′-Methoxy-[1,1′-biphenyl]-4-yl)-5-(quinoxalin-6-yl)-4,5-dihydro-1H-pyrazol-1-yl)-4-oxobutanoic acid] | – | 83.7 ± 0.4% | < 5% | –
30 | O=C(CCC(=O)N1N=C(c2ccc(-c3ccccc3)cc2)CC1c1ccc2nccnc2c1)NS(=O)(=O)c1ccccc1 (stereo not shown) [Compound 123, 4-(3-([1,1′-Biphenyl]-4-yl)-5-(quinoxalin-6-yl)-4,5-dihydro-1H-pyrazol-1-yl)-4-oxo-N-(phenylsulfonyl) butanamide] | – | 77 ± 4.2% | 7.4 ± 0.7% | –
31 | O=C(O)/C=C\C(=O)N1N=C(c2ccc(Cl)cc2)CC1c1ccc2nccnc2c1 (stereo not shown) [Compound 52, (Z)-4-(3-(4-Chlorophenyl)-5-(quinoxalin-6-yl)-4,5-dihydro-1H-pyrazol-1-yl)-4-oxobut-2-enoic acid] | 34.1 ± 1.3% | – | – | –
